Results taken from patent US10821064B2, “Anti-dandruff agents” (Croda International PLC, priority 2015, dated 2020).

Experiments:
[1] = system: Malassezia furfur (ATCC #38593); assay: Malassezia furfur growth inhibition assay (96-well, Alamar blue); type: cell-based
Method: Malassezia furfur (ATCC #38593) was cultured on Media C agar for 7 days at 37° C. Yeast colonies were then harvested into 0.9% saline sterile diH2O and diluted to approximately 1.5×10^6 CFU/mL using a 0.5 MacFarland standard (Fisher # R20410) to create an assay inoculum. Assay inoculum was added to sterile Media C broth to a final concentration of 4.5×10^4 CFU/mL. Assays were carried out in 96 well plates with a final well volume of 100 μL. Extract fractions and pure compounds were tested in triplicate against each organism. Extract fractions and pure compounds were re-suspended in sterile 20% DMSO. Extract fractions were assayed at two concentrations (50 and 250 μg/mL) with a final well volume concentration of 2% DMSO while pure compounds were serially diluted to generate a range of eight concentrations (128 μg/mL to 1 μg/mL) in a final well volume concentration of 2% DMSO. Each plate contained eight un-inoculated positive controls (media+20% DMSO), eight untreated negative controls (Media+20% DMSO+organism), and one column containing a concentration range of a ketoconazole as a control antibiotic. The assay plate was incubated at 37° C. for 5 days after which growth within the wells were visualised and photographed with a UVP Biospectrum 500 imaging system. Alamar blue was then added to each well at 10% of the culture volume (11 μL in 100 μL). Fluorescence was monitored using a BioTek Synergy HT plate reader at 530/25 excitation, 590/35 emission and 35 sensitivity at both time zero and 4 hrs after Alamar blue was added. After subtracting the time zero emission 590 nm measurement from the final reading the inferred percentage of microorganism survival relative to vehicle control wells were calculated and the IC50 was determined.

[2] = system: Human foreskin BJ fibroblast cells (ATCC CRL-2522); assay: Fibroblast cytotoxicity assay (Alamar blue); type: cell-based
Method: Human foreskin BJ fibroblast cells (ATCC CRL-2522) were grown and maintained in 15 mL of Eagle's minimal essential medium (Sigma M5650) supplemented with 10% fetal bovine serum (VWR # CA95043-976) and […] penicillin and 0.1 mg/mL streptomycin (VWR # CA12001-692) in T75 cm^2 cell culture flasks (VWR # CABD353136) at 37° C. in a humidified atmosphere of 5% CO2. Culture medium was refreshed every two to three days and cells were not allowed to exceed 80% confluency.
At 80% confluency, the cells were counted, diluted and plated into 96 well treated cell culture plates (VWR #29442-054) at a cell density of 10000 cells per well in 90 μL of respective growth medium. All media used for the assay were the same without the addition of antibiotics. The plates were incubated at 37° C. in a humidified atmosphere of 5% CO2 to allow cells to adhere to the plates for 24 hrs before treatment. DMSO was used as the vehicle at a final concentration of 1% in the wells. […]
(§1) All samples were tested in triplicate. […] Fluorescence was monitored using a BioTek Synergy HT plate reader at 530/25 excitation, 590/35 emission and 35 sensitivity at both time zero and 4 hrs after Alamar blue was added. After subtracting the time zero emission 590 nm measurement from the final reading the inferred percentage of microorganism survival relative to vehicle control wells were calculated and the IC50 was determined.

[3] = system: M. furfur; assay: Anti-fungal effect against M. furfur in a shampoo type formulation; type: cell-based, Malassezia furfur
Method: Experimentation was carried out to assess the anti-fungal effect of the fumagillin derivative alone and in combination with pseurotin A against M. furfur in a shampoo type formulation.
Compositions of the fumagillin derivative with and without pseurotin A were created and suspended into the baby shampoo. The shampoo mixture was then diluted out into the assay in a similar manner to Head & Shoulders, so that various dilution points in the assay represented multiple sub-inhibitory concentrations of the fumagillin derivative and pseurotin A.

[4] = system: Adult human epidermal keratinocytes (Heka); assay: Keratinocyte cytotoxicity assay (Alamar blue); type: cell-based
Method: Adult human epidermal keratinocytes (Heka) isolated from skin (Invitrogen # C-005-5C) were grown and maintained in 15 mL of EPilife medium (Invitrogen # M-EPI-500) supplemented with HKGS growth supplements (Invitrogen # S-001-5) (0.2% v/v bovine pituitary extract (BPE), 5 μg/mL bovine insulin, 0.18 μg/mL hydrocortisone, 5 μg/mL bovine transferrin, 0.2 ng/mL human epidermal growth factor) and 50 μg/mL gentamicin (Sigma # G1397-10ML) in T75 cm^2 cell culture flasks (VWR # CABD353136) and incubated at 37° C. in a humidified atmosphere of 5% CO2. Growth medium was refreshed every 2 days until the cells reached 50% confluency and then the medium was refreshed every 24 hrs until 80% confluency was obtained.
At 80% confluency, the cells were counted, diluted and plated into 96 well treated cell culture plates (VWR #29442-054) at a cell density of 10000 cells per well in 90 μL of respective growth medium. […]
as §1

SMILES	IC50 ([1]; Malassezia furfur, ATCC38593, 120 h, 37° C., 5 days, Alamar blue)	MIC ([1]; Malassezia furfur, ATCC38593, 120 h, 37° C., 5 days, pure compound 128 to 1 μg/mL)	IC50 ([2]; Homo sapiens, Fibroblast, 24 hrs treatment, cytotoxicity)	Fibroblast MIC ([2]; human, 24 h)	MIC ([3]; Malassezia furfur, fumagillin derivative alone, suspended in baby shampoo)	IC50 ([4]; Homo sapiens, HEKa, 24 hrs treatment, cytotoxicity)	Keratinocyte MIC ([4]; human, 24 h)	antifungal effect against Malassezia yeasts ([1]; screening of extracts)	antifungal effect against M. furfur ([3]; shampoo type formulation, alone or as mixture at sub-MIC concentrations)
CO[C@@H]1[C@H](OC(=O)/C=C/[C@H]2O[C@@H]2C)CC[C@]2(CO2)[C@H]1[C@@]1(C)O[C@@H]1CC=C(C)C [Fumagillin derivative]	~0.7 µg/mL	~2 µg/mL	> 64 µg/mL	>64 µg/mL	1.25 µg/mL	> 64 µg/mL	>64 µg/mL		
CC/C=C\[C@H](O)[C@H](O)C1=C(C)C(=O)[C@]2(O1)C(=O)N[C@@](OC)(C(=O)c1ccccc1)[C@@H]2O [Pseurotin A, pseurotin A, reference compound]								some activity against M. furfur	antifunimgal effect against M. furfur was observed
